# In US11384060B2, “Amide compounds and use thereof” (ALPHALA CO., LTD., priority 2017, dated 2022):
# Where two headings read alike, the source gives them in different places.
# Tests used:
# glucagon receptor (GCGR) = target: T1, glucagon receptor (GCGR) (Homo sapiens, UniProt P47871); test: I125-glucagon binding assay (competition, GCGR membrane fractions)
# T1 construct: expressed in transfected cells; host or cells: CHO-K1 cells overexpressing GCGR (membrane fractions)
# Procedure, shortened: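 Competition of 0.0625 nM (final) I^125-glucagon for 30 min at 25° C, after 5 min compound preincubation, using 7.5 μg/well GCGR-overexpressing CHO-K1 membranes in 50 mM Tris pH 7.4, 0.5% BSA. Filtration onto PEI-coated GF/B, micro-beta counting, and non-linear regression gave IC50.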
# [1] = target: T2, glucagon receptor (GCGR) overexpressed CHO-K1 cells or human primary hepatocytes (Homo sapiens, UniProt P47871); test: Glucagon cAMP inhibition assay (Cisbio cAMP Dynamic 2 HTRF); type: cell-based
# T2 construct: expressed in transfected cells; host or cells: GCGR overexpressed CHO-K1 cells or human primary hepatocytes (endogenous receptor)
# T2 sequence (P47871 26-477): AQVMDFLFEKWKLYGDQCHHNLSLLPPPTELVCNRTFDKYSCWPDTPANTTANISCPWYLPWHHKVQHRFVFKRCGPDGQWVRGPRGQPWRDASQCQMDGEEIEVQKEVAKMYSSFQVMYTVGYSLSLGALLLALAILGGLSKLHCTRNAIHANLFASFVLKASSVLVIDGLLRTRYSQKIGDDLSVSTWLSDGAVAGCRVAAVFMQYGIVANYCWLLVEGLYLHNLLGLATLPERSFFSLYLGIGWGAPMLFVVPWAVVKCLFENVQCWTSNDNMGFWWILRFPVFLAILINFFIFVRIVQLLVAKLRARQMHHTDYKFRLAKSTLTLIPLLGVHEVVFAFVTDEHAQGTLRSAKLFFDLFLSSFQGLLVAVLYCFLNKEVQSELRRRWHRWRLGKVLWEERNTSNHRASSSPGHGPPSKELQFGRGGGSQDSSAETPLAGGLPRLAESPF
# Procedure, shortened: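 HTRF read-out of glucagon-induced cAMP, with IC50 from non-linear regression. Cells (GCGR CHO-K1 or human primary hepatocytes) in HBSS/0.1% BSA/800 nM IBMX took compound dilutions for 30 min (final DMSO 1%), then EC50-level glucagon for 30 min at room temperature, then a 60 min lysis/detection step.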
# [2] = competition with I125-glucagon 0.0625 nM, membrane fractions of GCGR overexpressed CHO-K1 cells
# [3] = inhibition of glucagon (EC50 concentration) induced cAMP production
# T1 sequence (P47871 26-477): as above
IC50 (glucagon receptor (GCGR); [2]),"IC50 cAMP [1, 3]",IC50 (glucagon receptor (GCGR)),IC50 cAMP [1],SMILES
0.637 µM,1.242 µM,–,–,"CCC(C)[C@@H](Cc1noc(-c2ccc(C(C)(C)C)cc2)n1)Nc1ccc(C(=O)NCCC(=O)O)cc1 (stereo partly drawn) [Compound 21-2, 3-(4-(((2R)-1-(5-(4-(tert-butyl)phenyl)-1,2,4-oxadiazol-3-yl)-3-methylpentan-2-yl)amino)benzamido)propanoic Acid]"
1.13 µM,5.436 µM,–,–,"CC(C)[C@@H](Cc1noc(-c2ccc(C(C)(C)C)cc2)n1)Nc1ccc(C(=O)NCCC(=O)O)cc1 [Compound 21-3, (R)-3-(4-((1-(5-(4-(tert-butyl)phenyl)-1,2,4-oxadiazol-3-yl)-3-methylbutan-2-yl)amino)benzamido)propanoic Acid]"
–,–,0.062 µM,>30 µM,"CC[C@H](C)[C@@H](COc1nnc(-c2ccc(C(F)(F)F)cc2F)o1)Nc1ccc(C(=O)NCCC(=O)O)cc1 [Compound 22-1, 3-(4-(((2S,3S)-1-((5-(2-fluoro-4-(trifluoromethyl)phenyl)-1,3,4-oxadiazol-2-yl)oxy)-3-methylpentan-2-yl)amino)benzamido)propanoic Acid]"
–,–,1.43 µM,>30 µM,"CCCC[C@@H](COc1nnc(-c2ccc(OC(F)(F)F)cc2)o1)Nc1ccc(C(=O)NCCC(=O)O)cc1 [Compound 22-2, (S)-3-(4-((1-((5-(4-(trifluoromethoxy)phenyl)-1,3,4-oxadiazol-2-yl)oxy)hexan-2-yl)amino)benzamido)propanoic Acid]"
–,–,13.6 µM,>30 µM,"CCCC[C@@H](COc1nnc(-c2ccc(C(F)(F)F)cc2F)o1)Nc1ccc(C(=O)NCCC(=O)O)cc1 [Compound 22-3, (S)-3-(4-((1-((5-(2-fluoro-4-(trifluoromethyl)phenyl)-1,3,4-oxadiazol-2-yl)oxy)hexan-2-yl)amino)benzamido)propanoic Acid]"
–,–,> 30 µM,>30 µM,"CCCC[C@@H](COc1nnc(-c2cc3ccccc3o2)o1)Nc1ccc(C(=O)NCCC(=O)O)cc1 [Compound 22-4, (S)-3-(4-((1-((5-(benzofuran-2-yl)-1,3,4-oxadiazol-2-yl)oxy)hexan-2-yl)amino)benzamido)propanoic Acid]"
–,–,> 30 µM,>30 µM,"CCCC[C@@H](COc1nnc(-c2ccc(C(F)(F)F)cc2)o1)Nc1ccc(C(=O)NCCC(=O)O)cc1 [Compound 22-5, (S)-3-(4-((1-((5-(4-(trifluoromethyl)phenyl)-1,3,4-oxadiazol-2-yl)oxy)hexan-2-yl)amino)benzamido)propanoic Acid]"
–,–,> 30 µM,>30 µM,"CCCC[C@@H](COc1nnc(-c2ccc(Cl)cc2Cl)o1)Nc1ccc(C(=O)NCCC(=O)O)cc1 [Compound 22-6, (S)-3-(4-((1-((5-(2,4-dichlorophenyl)-1,3,4-oxadiazol-2-yl)oxy)hexan-2-yl)amino)benzamido)propanoic Acid]"
–,–,> 30 µM,>30 µM,"CC[C@H](C)[C@@H](COc1nnc(-c2cc3ccccc3o2)o1)Nc1ccc(C(=O)NCCC(=O)O)cc1 [Compound 22-7, 3-(4-(((2S,3 S)-1-((5-(benzofuran-2-yl)-1,3,4-oxadiazol-2-yl)oxy)-3-methylpentan-2-yl)amino)benzamido)propanoic Acid]"
–,–,> 30 µM,>30 µM,"CC[C@H](C)[C@@H](COc1nnc(-c2ccc(C(F)(F)F)cc2)o1)Nc1ccc(C(=O)NCCC(=O)O)cc1 [Compound 22-10, 3-(4-(((2S,3S)-3-methyl-1-((5-(4-(trifluoromethyl)phenyl)-1,3,4-oxadiazol-2-yl)oxy)pentan-2-yl)amino)benzamido)propanoic Acid]"
–,–,> 30 µM,>30 µM,"CC[C@H](C)[C@@H](COc1nnc(-c2ccc(Cl)cc2Cl)o1)Nc1ccc(C(=O)NCCC(=O)O)cc1 [Compound 22-11, 3-(4-(((2S,3S)-1-((5-(2,4-dichlorophenyl)-1,3,4-oxadiazol-2-yl)oxy)-3-methylpentan-2-yl)amino)benzamido)propanoic Acid]"
–,–,> 30 µM,>30 µM,"CC(C)[C@@H](COc1nnc(-c2cc3ccccc3o2)o1)Nc1ccc(C(=O)NCCC(=O)O)cc1 [Compound 22-12, (S)-3-(4-((1-((5-(benzofuran-2-yl)-1,3,4-oxadiazol-2-yl)oxy)-3-methylbutan-2-yl)amino)benzamido)propanoic Acid]"
–,–,> 30 µM,>30 µM,"CC(C)[C@@H](COc1nnc(-c2ccc(C(F)(F)F)cc2)o1)Nc1ccc(C(=O)NCCC(=O)O)cc1 [Compound 22-13, (S)-3-(4-((3-methyl-1-((5-(4-(trifluoromethyl)phenyl)-1,3,4-oxadiazol-2-yl)oxy)butan-2-yl)amino)benzamido)propanoic Acid]"
–,–,> 30 µM,>30 µM,"CC(C)[C@@H](COc1nnc(-c2ccc(Cl)cc2Cl)o1)Nc1ccc(C(=O)NCCC(=O)O)cc1 [Compound 22-14, (S)-3-(4-((1-((5-(2,4-dichlorophenyl)-1,3,4-oxadiazol-2-yl)oxy)-3-methylbutan-2-yl)amino)benzamido)propanoic Acid]"
–,–,> 30 µM,>30 µM,"CC(C)[C@@H](COc1nnc(-c2ccc(OC(F)(F)F)cc2)o1)Nc1ccc(C(=O)NCCC(=O)O)cc1 [Compound 22-15, (S)-3-(4-((3-methyl-1-((5-(4-(trifluoromethoxy)phenyl)-1,3,4-oxadiazol-2-yl)oxy)butan-2-yl)amino)benzamido)propanoic Acid]"
–,–,> 30 µM,>30 µM,"CC(C)[C@@H](COc1nnc(-c2ccc(C(C)(C)C)cc2)o1)Nc1ccc(C(=O)NCCC(=O)O)cc1 [Compound 22-16, (S)-3-(4-((1-((5-(4-(tert-butyl)phenyl)-1,3,4-oxadiazol-2-yl)oxy)-3-methylbutan-2-yl)amino)benzamido)propanoic Acid]"
–,–,> 30 µM,>30 µM,CC(C)[C@@H](COc1nnc(-c2ccc(C(F)(F)F)cc2F)o1)Nc1ccc(C(=O)NCCC(=O)O)cc1 [Compound 22-17]
–,–,> 30 µM,>30 µM,"CCCC[C@@H](COc1nnc(-c2ccc(C(C)(C)C)cc2)o1)Nc1ccc(C(=O)NCCC(=O)O)cc1 [Compound 22-18, (S)-3-(4-((1-((5-(4-(tert-butyl)phenyl)-1,3,4-oxadiazol-2-yl)oxy)hexan-2-yl)amino)benzamido)propanoic Acid]"
–,–,> 30 µM,>30 µM,CC[C@H](C)[C@@H](COc1nnc(-c2ccc(C(F)(F)F)cc2Cl)o1)Nc1ccc(C(=O)NCCC(=O)O)cc1 [Compound 22-19]
–,–,> 30 µM,>30 µM,"CC[C@H](C)[C@@H](COc1nnc(-c2ccc(C(F)(F)F)cc2F)o1)Nc1ccc(C(=O)NCCC(=O)OC)cc1 [Compound 22-20, Methyl 3-(4-(((2S,3S)-1-((5-(2-fluoro-4-(trifluoromethyl)phenyl)-1,3,4-oxadiazol-2-yl)oxy)-3-methylpentan-2-yl)amino)benzamido)propanoate]"
–,–,0.087 µM,3.6 µM,"CC(C)C[C@H](Nc1ccc(C(=O)NCCC(=O)O)cc1)C(=O)Nc1ccc(-c2ccc(Cl)cc2Cl)cc1 [Compound 23-1, (S)-3-(4-((1-((2′,4′-dichloro-[1,1′-biphenyl]-4-yl)amino)-4-methyl-1-oxopentan-2-yl)amino)benzamido)propanoic Acid]"
–,–,0.462 µM,5.2 µM,"O=C(O)CCNC(=O)c1ccc(N[C@@H](Cc2ccccc2)C(=O)Nc2ccc(-c3ccc(Cl)cc3Cl)cc2)cc1 [Compound 23-2, (S)-3-(4-((1-((2′,4′-dichloro-[1,1′-biphenyl]-4-yl)amino)-1-oxo-3-phenylpropan-2-yl)amino)benzamido)propanoic Acid]"
–,–,0.388 µM,5.8 µM,"Cc1cc(C)c(-c2ccc(NC(=O)[C@H](Cc3ccccc3)Nc3ccc(C(=O)NCCC(=O)O)cc3)cc2)c(C)c1 [Compound 23-3, (S)-3-(4-((1-oxo-3-phenyl-1-((2′,4′,6′-trimethyl-[1,1′-biphenyl]-4-yl)amino)propan-2-yl)amino)benzamido)propanoic Acid]"
–,–,0.269 µM,3.2 µM,"CC(C)C[C@H](Nc1ccc(C(=O)NCCC(=O)O)cc1)C(=O)Nc1ccc(-c2ccc(C(F)(F)F)cc2)cc1 [Compound 23-4, (S)-3-(4-((4-methyl-1-oxo-1-((4′-(trifluoromethyl)-[1,1′-biphenyl]-4-yl)amino)pentan-2-yl)amino)benzamido)propanoic Acid]"
–,–,0.08 µM,3.5 µM,"CC(C)C[C@H](Nc1ccc(C(=O)NCCC(=O)O)cc1)C(=O)Nc1ccc(-c2cc3ccccc3o2)cc1 [Compound 23-5, (S)-3-(4-((1-((4-(benzofuran-2-yl)phenyl)amino)-4-methyl-1-oxopentan-2-yl)amino)benzamido)propanoic Acid]"
–,–,2.51 µM,0.181 µM,"CCOC(=O)CCNC(=O)c1ccc(N[C@@H](CC(C)C)C(=O)Nc2ccc(-c3cc4ccccc4o3)cc2)cc1 [Compound 23-6, Ethyl (S)-3-(4-((1-((4-(benzofuran-2-yl)phenyl)amino)-4-methyl-1-oxopentan-2-yl)amino)benzamido)propanoate]"
–,–,4.27 µM,0.0643 µM,"CCOC(=O)CCNC(=O)c1ccc(N[C@@H](Cc2ccccc2)C(=O)Nc2ccc(-c3cc4ccccc4o3)cc2)cc1 [Compound 23-7, Ethyl (S)-3-(4-((1-((4-(benzofuran-2-yl)phenyl)amino)-1-oxo-3-phenylpropan-2-yl)amino)benzamido)propanoate]"
